According to patent US20160022621A1, “COMPOSITION FOR ORAL ADMINISTRATION FOR BINDING ALDEHYDES IN THE GASTROINTESTINAL TRACT” (BIOHIT OYJ, priority 2013, published 2016):

Assays:
[1] = Acetaldehyde-binding: acetaldehyde and ethanol levels in gastric juice after oral L-cysteine tablets and ethanol; assay type: in vivo, human; details: L-cysteine total 200 mg oral, film-coated tablets; ethanol 0.3 g/kg, 15 vol %; all measurements
Method: An analysis was carried out after administering L-cysteine (in a total of 200 mg) or placebo, orally to subjects. This cysteine or placebo was formulated into film-coated tablets as described above, with the cysteine or the placebo in granules together with a polymer not dissolving in the stomach and an inert bulking agent. The subjects swallowed said tablets with 200 ml of water. Immediately thereafter they were given ethanol (0.3 g/kg body weight) diluted in water to 15 vol %. Gastric juice samples were collected, and their L-cysteine concentrations were determined using HPLC, and two parallel samples. […] In all measurements, the average acetaldehyde concentration of the gastric juice was 2.6 times higher with placebo than with cysteine. […] The average ethanol concentration in the gastric juice was 5.0 vol-% in the first sample, declining to 0.9 vol-% in the 40-minute sample. A positive correlation emerged between the acetaldehyde concentration and the ethanol concentration.

[2] = L-cysteine concentration in gastric juice (HPLC) after oral tablets; assay type: in vivo, human; details: after oral administration of study formulations containing L-cysteine (total 200 mg)
Method: An analysis was carried out after administering L-cysteine (in a total of 200 mg) or placebo, orally to subjects. This cysteine or placebo was formulated into film-coated tablets as described above, with the cysteine or the placebo in granules together with a polymer not dissolving in the stomach and an inert bulking agent. The subjects swallowed said tablets with 200 ml of water. Immediately thereafter they were given ethanol (0.3 g/kg body weight) diluted in water to 15 vol %.
Gastric juice samples were collected, and their L-cysteine concentrations were determined using HPLC, and two parallel samples.
The mean cysteine concentrations are represented in FIG. 2. After administration of placebo formulations, no L-cysteine was detected. No significant correlation was found between the cysteine concentration and the acetaldehyde concentration.

N[C@@H](CS)C(=O)O [L-cysteine]
average acetaldehyde concentration of the gastric juice, times higher with placebo than with cysteine [1]: 2.6 times
L-cysteine detected in gastric juice [2]: detected in the gastric juice of all subjects
